Key:
ALOX12-AS1-201 lncRNA = test: Nucleo-cytoplasmic translocation of ALOX12-AS1-201 in THP-1 cells (FISH, fractionation, quantitative RT-PCR); format: cell-based, human
Experimental: Therefore, we induced differentiation of monocytic THP-1 cells to macrophage-like cells (MLCs) with 100 nM TPA [91, 92] and monitored the ALOX12 protein level as well as nucleo-cytoplasmic translocation of ALOX12-AS1-201. […] Based on these observations, we performed nuclear and cytoplasmic fractionation at 72 hours of TPA treatment.
Total RNA from different cell lines was extracted with Trizol reagent (Catalog number: 15596026; ThermoFisher Scientific, Canada) as per the manufacturer's recommended protocol. Total RNA (1-5 μg) was treated with RNase-free DNase I (Catalog number: M0303, New England Biolabs Inc., USA) at 37° C. for 15 min, subsequently heat-inactivated at 75° C. for 10 min and used for cDNA synthesis. […] Absolute quantification of ALOX12-AS1 lncRNA isoforms was performed in a Mastercycler®ep realplex real-time PCR system (Eppendorf, Hamburg, Germany) using SYBR green dye (Catalog number: S7563; ThermoFisher Scientific). […] Real-time PCR data quality control calculations were determined by the SAS program as described previously [101] and the calculated PCR efficiency was between 95%-99%. Quantitative RT-PCR was conducted for different cell-line derived RNAs, and the specificity of each amplified product was confirmed by melting curve analysis. Results were expressed as copy number of specific isoforms per 100 ng of total RNA.

THP-1 cells = test: TPA-induced differentiation of THP-1 cells to macrophage-like cells (ITGAM immunoblot, CD68 immunofluorescence); format: cell-based, human; details: 100 nM TPA
Experimental: Phorbol ester (12-O-Tetradecanoylphorbol 13-acetate: TPA) is an activator of protein kinase C (PKC) that has been frequently used for inducing the differentiation of different cell types, including myeloid cells. Activation of human monocytic cells affects ALOX expression. Therefore, we induced differentiation of monocytic THP-1 cells to macrophage-like cells (MLCs) with 100 nM TPA [91, 92] and monitored the ALOX12 protein level as well as nucleo-cytoplasmic translocation of ALOX12-AS1-201. […] We concurrently monitored expression of the integrin subunit a M (ITGAM), also known as CD11b, which regulates myeloid cell polarization and is expressed in macrophages to facilitate adhesion, migration, chemotaxis, and accumulation during inflammation. […] CD68 is a transmembrane glycoprotein that is mainly located in the endosomal/lysosomal compartment but can rapidly shuttle to the cell surface in myeloid cells. […] Based on these observations, we performed nuclear and cytoplasmic fractionation at 72 hours of TPA treatment.
Relative quantification of proteins was performed as described previously. […] The immunoblots were imaged using a ChemiDoc XRS+ system (Bio-Rad) and band intensities were quantified using ImageJ (version 1.48) Software. […]

ALOX12 AS1-201 = test: Multiplex RT-PCR of ALOX12-AS1-201 in TPA-treated THP-1 derived MLCs; format: cell-based, human; details: TPA treated (72 hours) MLCs vs vehicle treated THP-1 cells
Experimental: (§1) Phorbol ester (12-O-Tetradecanoylphorbol 13-acetate: TPA) is an activator of protein kinase C (PKC) that has been frequently used for inducing the differentiation of different cell types, including myeloid cells. Activation of human monocytic cells affects ALOX expression. Therefore, we induced differentiation of monocytic THP-1 cells to macrophage-like cells (MLCs) with 100 nM TPA [91, 92] and monitored the ALOX12 protein level as well as nucleo-cytoplasmic translocation of ALOX12-AS1-201. […] We concurrently monitored expression of the integrin subunit a M (ITGAM), also known as CD11b, which regulates myeloid cell polarization and is expressed in macrophages to facilitate adhesion, migration, chemotaxis, and accumulation during inflammation. […]
(§2) Total RNA from different cell lines was extracted with Trizol reagent (Catalog number: 15596026; ThermoFisher Scientific, Canada) as per the manufacturer's recommended protocol. […] Absolute quantification of ALOX12-AS1 lncRNA isoforms was performed in a Mastercycler®ep realplex real-time PCR system (Eppendorf, Hamburg, Germany) using SYBR green dye (Catalog number: S7563; ThermoFisher Scientific). […] Real-time PCR data quality control calculations were determined by the SAS program as described previously and the calculated PCR efficiency was between 95%-99%. […] Results were expressed as copy number of specific isoforms per 100 ng of total RNA.

ALOX12 mRNA [1] = test: Multiplex RT-PCR of ALOX12 mRNA in TPA-treated THP-1 derived MLCs; format: cell-based, human; details: TPA treated (72 hours) MLCs vs vehicle treated THP-1 cells
Experimental: as §1, §2

ALOX12 = ALOX12 catalytic activity in cell lysates (12S-HETE ELISA); format: biochemical, human; details: lysate of TPA-induced MLC, 50 μM arachidonic acid, 15 min, 37° C.; vehicle THP-1 lysate ~6 ng
From the text: We measured ALOX12 enzyme activity of THP-1 and TPA-induced MLC cell lysates and compared them to establish the biological relevance of lncRNA-mediated downregulation of ALOX12 protein level. We used a cell-free system to avoid any limitations of intracellular arachidonic acid uptake by an in vitro cell-based system. As well, we used a platelet-derived protein-lysate as a positive control for ALOX12 enzyme activity. ALOX12 was originally discovered and characterized as an arachidonic acid peroxidizing enzyme in platelets.
ALOX12 catalytic activity was measured in a cell-free system using cell lysates derived from unactivated human platelets (positive control) and Phorbol ester (12-O-Tetradecanoylphorbol 13-acetate: TPA)/vehicle (DMSO/ethanol)-treated THP-1. ALOX12 converts arachidonate to the bioactive lipid 12(S)-hydroperoxyeicosatetraenoate (12S-HpETE). […] The cell lysates prepared in 1×PBS supplemented with 0.5% NP40, 1× Halt protease and phosphatase inhibitor cocktail 1 were incubated with 50 μM arachidonic acid (catalogue number: A0781, Tokyo Chemical Industry, USA) for 15 min at 37° C. and the amount of 12S-HETE was quantitatively measured using a commercially available Enzyme-Linked ImmunoAssay (ELISA) kit (catalogue number: ADI-900-050, Enzo Life Sciences Inc., USA) as per the manufacturer's instructions. […]

ALOX12 mRNA [2] = details: A431 cells, time-dependent; cited from earlier work

CCCCCCCCCCCCCC(=O)O[C@@H]1[C@@H](C)[C@@]2(O)[C@@H](C=C(CO)C[C@]3(O)C(=O)C(C)=C[C@@H]23)[C@@H]2C(C)(C)[C@]12OC(C)=O [TPA, 12-O-Tetradecanoylphorbol 13-acetate]
time to translocation of ALOX12-AS1-201 lncRNA to the cytosol (ALOX12-AS1-201 lncRNA; THP-1 cells, 100 nM TPA, FISH): ≤ 1 h
ALOX12-AS1-201 cytosolic abundance (ALOX12-AS1-201 lncRNA; TPA-differentiated MLCs, 72 hours, vs vehicle (DMSO) treated THP-1 cells, quantitative RT-PCR): significant increase
ITGAM expression (THP-1 cells; immunoblot): expressed at 72 hours
CD68 expression and localization (THP-1 cells; immunofluorescence): gradually increasing expression and translocation of CD68 to endosomal structures
ALOX12 AS1-201 level (ALOX12 AS1-201): relatively unaltered
ALOX12 mRNA level (ALOX12 mRNA [1]): relatively unaltered
12S-HETE production (ALOX12): ~1.3 ng
expression of ALOX12 mRNA (ALOX12 mRNA [2]): increased

From patent publication US20230407296A1, “Method to Regulate ALOX12-AS1 IncRNA-Mediated Alteration of ALOX12 Protein and to Screen for Novel Drugs to Alter ALOX12 Protein Level” (priority 2021, published 2023)
